# Where a name gives a salt, the structure may show the parent alone.
# Biological target: chymotrypsin (Bos taurus, UniProt P00766)
# Test: Chymotrypsin inhibitive activity (method of Muramatsu et al., acetyl-L-tyrosine ethyl ester substrate, Hestrin Method)
# Type: biochemical
# Conditions: pH 8.0 tris-hydrochloric acid buffer, 10 minutes preincubation, 30° C., 30 minutes, absorbance at 530 nm, read-out: Chymotrypsin inhibitive activity [50% inhibition concentration (M)]
# Experimental: A solution prepared by mixing 0.1 ml of a dimethylsulfoxide solution containing a compound to be tested, 0.1 ml of water and 0.1 ml of a buffer solution containing 10 ug/ml of chymotrypsin (0.1M tris-hydrochloric acid buffer solution, pH 8.0) was incubated for 10 minutes by the method of Muramatsu et al. [see The Journal of Biochemistry, 62, 408 (1967)]. 0.2 ml of a buffer solution containing 25 mM of an acetyl-L-tyrosine ethyl ester was mixed with the above-prepared solution and reacted at 30° C. for 30 minutes. The amount of the remaining substrate was determined by causing the same to develop color by the Hestrin Method and measuring the absorbance at 530 nm. For comparative purposes, use was made of tosylphenylalanine chloromethyl ketone which was known as a chymotrypsin inhibitor (Comparative Compound I).
row,IC50 [M],Structure (SMILES)
1,3e-06,"CC(C)N1CCN(C(=O)c2ccc(OC(=O)Cc3cccc4c3CCCC4)cc2)CC1 [Example 1, 1-Isopropyl-4-[4-(5,6,7,8-tetraphydronaphthalene-1-acetyloxy)benzoyl]piperazine.hydrochloride]"
2,1e-07,"CC(C)N1CCN(C(=O)c2ccc(OC(=O)C=C3c4ccccc4-c4ccccc43)cc2)CC1 [Example 2, 1-Isopropyl-4-[4-(9-fluorenylideneacetyloxy)benzoyl]piperazine]"
3,9e-07,CC(C)N1CCN(C(=O)c2ccc(OC(=O)Cc3cc4ccccc4s3)cc2)CC1 [Example 3]
4,5e-06,CC(C)N1CCN(C(=O)c2ccc(OC(=O)C3CCc4ccccc43)cc2)CC1 (stereo not shown) [Example 4]
5,1e-06,COc1ccc2c(c1)C(CC(=O)Oc1ccc(C(=O)N3CCN(C(C)C)CC3)cc1)=CC2 [Example 9]
6,8e-07,CC1CCC(C(=O)Oc2ccc(C(=O)N3CCN(C(C)C)CC3)cc2)c2ccccc21 (stereo not shown) [Example 15]
7,8e-07,CC(C)N1CCN(C(=O)c2ccc(OC(=O)C3CCCc4cc(Cl)ccc43)cc2)CC1 (stereo not shown) [Example 17]
8,6e-07,Cc1ccc2c(c1)CCCC2C(=O)Oc1ccc(C(=O)N2CCN(C(C)C)CC2)cc1 (stereo not shown) [Example 18]
9,5e-06,CC(C)N1CCN(C(=O)c2ccc(OC(=O)C3=Cc4ccccc4CC3)cc2)CC1 [Example 20]
10,9e-06,CC(C)N1CCN(C(=O)c2ccc(OC(=O)C3C=CCc4cc(Cl)ccc43)cc2)CC1 (stereo not shown) [Example 21]
11,3e-06,CC(C)N1CCN(C(=O)c2ccc(OC(=O)CC3=CCCc4ccccc43)cc2)CC1 [Example 22]
12,5e-07,CC(C)N1CCN(C(=O)c2ccc(OC(=O)Cc3cccc4ccccc34)cc2)CC1 [Example 24]
13,9e-06,CC(C)N1CCN(C(=O)c2ccc(OC(=O)COc3ccc4ccccc4c3)cc2)CC1 [Example 30]
14,7e-06,CC(C)N1CCN(C(=O)c2ccc(OC(=O)CCc3ccc4ccccc4c3)cc2)CC1 [Example 32]
15,1e-06,CC(C)N1CCN(C(=O)c2ccc(OC(=O)CC3c4ccccc4-c4ccccc43)cc2)CC1 [Example 40]
16,8e-07,"COc1ccc2c(c1)C(C(=O)Oc1ccc(C(=O)N3CCN(C)CC3)cc1)CCC2 (stereo not shown) [Example 65, 1-Methyl-4-[4-(7-methoxyl-1,2,3,4-tetrahydro-1-naphtoyloxy)benzoyl]piperazine.methanesulfonate]"
17,9e-07,O=C(Oc1ccc(C(=O)N2CCN(C3CCCCC3)CC2)cc1)C1CCCc2ccccc21 (stereo not shown) [Example 66]
18,8e-07,CC(C)N1CCN(C(=O)c2ccc(OC(=O)C3CCCc4ccccc43)cc2)CC1 (stereo not shown) [Example 67]
19,9e-07,CCN1CCN(C(=O)c2ccc(OC(=O)C3CCCc4ccccc43)cc2)CC1 (stereo not shown) [Example 68]

# From patent US4898876A, “Benzoylpiperazine esters and a process for their production” (Kowa Co., Ltd., priority 1982, dated 1990)
